We go through nine compounds from ChEMBL document CHEMBL1201862, “PubChem BioAssay data set” (2004).

Counter-ions that a name gives are not always drawn.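 48-hour exposure; five concentrations; linearly interpolated endpoints. At the GI50, growth is halved.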 Calls of active or inactive are those of the source. Cut-off read from the data, not from the text of the source: active = GI50 up to about 1.1 µM and inactive = higher. Square brackets hold non-standard residues; d marks the D form. Residues, ends and D or L forms follow the SMILES beside them. Peptide text beside a SMILES is read from it. *: point of attachment. Boc = CC(C)(C)OC(=O)*

Among the test systems are SN12C; CCRF-CEM; Hs-578T; UO-31; M14; IGROV-1; SF-268; UACC-62; Malme-3M; SR; NCI-H226; SK-MEL-5; SNB-75; MCF7; A498; HOP-92; CAKI-1; SK-MEL-2; MDA-N.
What all share (assay): inhibition of tumour cell growth, NCI panel, 48 h

For the compound `C=CCC(C)C12CCNC(Cc3ccc(O)cc31)C2C` (centres undefined), the GI50 with SN12C was > 100 µM (inactive); with CCRF-CEM, > 100 µM (inactive); in the experiment on Hs-578T it was 82.8 µM (inactive); in the experiment with UO-31, 38.6 µM (inactive); in the experiment on M14 it was 64.4 µM (inactive); in the experiment on IGROV-1, > 100 µM (inactive). The GI50 with SF-268 is > 100 µM (inactive); in the experiment with UACC-62, > 100 µM (inactive); in the experiment on Malme-3M it was > 100 µM (inactive); in the experiment on SR, 82.4 µM (inactive); in the experiment with NCI-H226, > 100 µM (inactive); in the experiment with SK-MEL-5, > 100 µM (inactive). The GI50 in the experiment with SNB-75 is > 100 µM (inactive); with MCF7, > 100 µM (inactive); with A498, 43.6 µM (inactive); in the experiment with HOP-92, 56.1 µM (inactive).

`c1ccc(-c2cnc3nc4ccccc4nc3n2)cc1`: the GI50 with CAKI-1 was 0.942 µM (active); with SN12C, 9.08 µM (inactive); in the experiment with CCRF-CEM it was 0.301 µM (active); in the experiment on Hs-578T it was 3.78 µM (inactive); in the experiment on UO-31, 4.58 µM (inactive); in the experiment with M14, 6.11 µM (inactive). For the same compound, the GI50 in the experiment with IGROV-1 is 3.31 µM (inactive); with SF-268, 4.29 µM (inactive); with UACC-62 it was 2.85 µM (inactive); with Malme-3M, 2.45 µM (inactive); in the experiment on SR, 0.826 µM (active); in the experiment with SK-MEL-2, 2.88 µM (inactive). In addition, the GI50 was 3.23 µM (inactive) in the experiment on NCI-H226; 3.05 µM (inactive) in the experiment on SK-MEL-5; 2.66 µM (inactive) with SNB-75; 1.82 µM (inactive) in the experiment with MCF7; 3.33 µM (inactive) in the experiment on A498.

As to `COC(=O)C(=NNc1ccccc1[N+](=O)[O-])C(=O)OC`, the GI50 with CAKI-1, with SN12C, in the experiment on CCRF-CEM, with IGROV-1, in the experiment on SF-268 and in the experiment on Malme-3M was > 100 µM (inactive) in each case. Moreover, the GI50 with SR was > 100 µM (inactive); with SK-MEL-2, > 100 µM (inactive); in the experiment with NCI-H226 it was > 100 µM (inactive); in the experiment on A498 it was > 100 µM (inactive); in the experiment with HOP-92 it was 24.1 µM (inactive).

With `c1ccc2c(c1)ccc1nc3ccccn3c12`, the GI50 was > 100 µM (inactive) in the experiment on SN12C; > 100 µM (inactive) with CCRF-CEM; 15.3 µM (inactive) with Hs-578T; 70.6 µM (inactive) in the experiment on UO-31; > 100 µM (inactive) in the experiment on M14; > 100 µM (inactive) in the experiment on IGROV-1. Also, the GI50 was > 100 µM (inactive) with SF-268; > 100 µM (inactive) in the experiment with UACC-62; > 100 µM (inactive) in the experiment on Malme-3M; > 100 µM (inactive) in the experiment on SR; > 100 µM (inactive) in the experiment on NCI-H226; 89.7 µM (inactive) in the experiment on SK-MEL-5. For the same compound, the GI50 in the experiment on SNB-75, with MCF7 and in the experiment with HOP-92 was > 100 µM (inactive) throughout.

As for `COc1cc2c(cc1NC(=O)c1ccccc1)c1c(n2S(=O)(=O)c2ccccc2)CCN(S(=O)(=O)c2ccccc2)C1`, the GI50 with CCRF-CEM, in the experiment with Hs-578T, in the experiment on M14, in the experiment on IGROV-1, in the experiment on SF-268 and in the experiment on UACC-62 was > 100 µM (inactive) each time. Further, the GI50 in the experiment on SR, with SK-MEL-2, in the experiment on NCI-H226, in the experiment with SK-MEL-5, in the experiment on SNB-75 and with A498 was > 100 µM (inactive) throughout. Further, the GI50 in the experiment with HOP-92 is > 100 µM (inactive).

As to `CCOc1ccc(N/C(=C(/C(Cl)=C(/Cl)N2CCCCC2)[N+](=O)[O-])n2nnc3ccccc32)cc1`, the GI50 with CAKI-1 is 9.23 µM (inactive); in the experiment on SN12C it was 19.3 µM (inactive); in the experiment with UO-31 it was 2 µM (inactive); with M14, 14.9 µM (inactive); with MDA-N, 16.3 µM (inactive); with SF-268, 17.4 µM (inactive). The GI50 in the experiment on UACC-62 is 14.4 µM (inactive); with Malme-3M, 21.7 µM (inactive); in the experiment on SK-MEL-2 it was 16.7 µM (inactive); with NCI-H226, 27.9 µM (inactive); in the experiment with SK-MEL-5, 15.6 µM (inactive); in the experiment with SNB-75, 19.9 µM (inactive). Also, the GI50 in the experiment with MCF7 was 16.9 µM (inactive); with A498, 18.3 µM (inactive); in the experiment with HOP-92, 18.2 µM (inactive).

Regarding `COC(=O)C(Cc1c[nH]c2ccccc12)NC(=O)C(Cc1c[nH]c2ccccc12)NC(=O)C(Cc1c[nH]c2ccccc12)NC(=O)C(Cc1c[nH]c2ccccc12)NC(=O)OC(C)(C)C` (centres undefined) (Boc-WWWW-OMe; configuration not given here), the GI50 is 44.3 µM (inactive) in the experiment on CAKI-1; > 100 µM (inactive) in the experiment on SN12C; 3.78 µM (inactive) in the experiment on CCRF-CEM; 89.7 µM (inactive) in the experiment on UO-31; 30.1 µM (inactive) in the experiment with M14; 18.5 µM (inactive) in the experiment on MDA-N. Moreover, the GI50 was 35.3 µM (inactive) in the experiment on IGROV-1; 28.2 µM (inactive) in the experiment on SF-268; 15.6 µM (inactive) in the experiment on UACC-62; 69.8 µM (inactive) with Malme-3M; 4.51 µM (inactive) with SR; 45.7 µM (inactive) in the experiment with NCI-H226. In addition, the GI50 with SK-MEL-5 is 34.5 µM (inactive); in the experiment on SNB-75 it was 25.5 µM (inactive); in the experiment on MCF7, < 0.01 µM (active).

As to `N=C(N)NCCC[C@H]1NC(=O)[C@@H](CCC(=O)O)NC(=O)[C@@H](CC(=O)O)NC(=O)[C@@H](CCC(=O)O)NC(=O)[C@H](Cc2c[nH]c3ccccc23)NC1=O` (cyclo(W[dE][dD][dE][dR])), the GI50 with CAKI-1, in the experiment on SN12C, with CCRF-CEM, in the experiment with Hs-578T, with UO-31 and in the experiment with M14 was > 7.5 µM (inactive) each time. The GI50 with IGROV-1 was > 7.5 µM (inactive); in the experiment on SF-268 it was > 7.5 µM (inactive); in the experiment with UACC-62, > 7.5 µM (inactive); in the experiment with SR, > 7.5 µM (inactive); with SK-MEL-2, 0.191 µM (active); in the experiment with NCI-H226, > 7.5 µM (inactive). The GI50 in the experiment with SK-MEL-5, in the experiment on MCF7, with A498 and in the experiment with HOP-92 was > 7.5 µM (inactive) in each case.

As for `NCCCCN` [PUTRESCINE HYDROCHLORIDE], the GI50 in the experiment with CAKI-1 was 15 µM (inactive); with CCRF-CEM, > 100 µM (inactive); in the experiment with UO-31 it was > 100 µM (inactive); with M14, > 100 µM (inactive); with IGROV-1 it was > 100 µM (inactive); in the experiment with SF-268, > 100 µM (inactive). Also, the GI50 in the experiment with UACC-62, in the experiment on Malme-3M, in the experiment with SR, with SK-MEL-2, in the experiment on NCI-H226 and in the experiment with SK-MEL-5 was > 100 µM (inactive) each time. For the same compound, the GI50 in the experiment on SNB-75, in the experiment with MCF7, with A498 and with HOP-92 was > 100 µM (inactive) throughout.
